The assay addresses T1, human leukocyte elastase (HLE) (Homo sapiens, UniProt P08246).
T1 sequence (P08246 30-267): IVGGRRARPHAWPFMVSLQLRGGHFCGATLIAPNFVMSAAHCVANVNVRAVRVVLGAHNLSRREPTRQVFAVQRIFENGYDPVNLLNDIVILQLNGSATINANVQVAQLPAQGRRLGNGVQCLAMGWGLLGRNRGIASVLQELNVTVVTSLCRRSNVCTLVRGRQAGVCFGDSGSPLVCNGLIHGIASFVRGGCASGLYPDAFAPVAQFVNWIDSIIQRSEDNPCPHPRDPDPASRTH
The experiment in a line: Inhibition of human leukocyte elastase (HLE) on methoxy-succinyl-alanyl-alanyl-prolyl-valine-p-nitroanilide. Format: biochemical. The conditions noted are these: dissociation constant of the inhibitor-HLE complex. On the procedure:
The potency of a Compound to act as an inhibitor of human leukocyte elastase (HLE) on the low molecular weight peptide substrate methoxy-succinyl-alanyl-alanyl-prolyl-valine-p-nitroanilide is determined as described in U.S. Pat. No. 4,910,190. The potency of an inhibitor is evaluated by obtaining a kinetic determination of the dissociation constant, Ki, of the complex formed from the interaction of the inhibitor with HLE. If a Compound is found to be a "slow-binding" inhibitor of HLE, special methods of analysis to accurately determine Ki values for the inhibition of HLE are carried out as described in U.S. Pat. 4,910,190.

For orientation: Ki means a dissociation constant, usually derived from enzyme kinetics or from competition with a known ligand.

Molecule `CC(C)C(NC(=O)Cn1c(-c2ccccc2)cc2c([nH]c3c(C=O)cccc32)c1=O)C(=O)C(F)(F)F` (stereo not shown) [Example 2, 2-(8-Formyl-1-oxo-3-phenyl-1,2-dihydropyrido[3,4-b]indol2-yl)-N-(3,3,3-trifluoro-1-isopropyl-2-oxopropyl)acetamide] gave a Ki of 27 nM.

These data come from US5405852A, “Amide derivatives” (Zeneca Limited, priority 1992, dated 1995).
